In data set [1] the test system is HTB-54, HT-29, HCT116 and MCF-7 cancer cell lines. As to the kind of experiment: MTT IC50, all tested cancer cell lines. It is filed as cell-based. As to conditions: 48 h. As to the method:
(§1) The cell lines were obtained from the American Type Culture Collection (ATCC). Five tumor cell lines (MDA-MB-231, MCF-7, HCT116, HTB-54, and DU-145) and two non-tumorigenic cells (184B5 and BEAS-2B) were grown in RPMI 1640 medium (Gibco), and the HT-29 tumor cell line was grown in McCoy’s medium. Both mediums were supplemented with 10% fetal bovine serum (FBS; Gibco) and 1% antibiotics (10.00 units/mL penicillin and 10.00 μg/mL streptomycin; Gibco). Cells were preserved in tissue culture flasks at 37 °C and 5% CO2. The culture medium was replaced every three days.
The effect of each compound on cell viability was tested using the MTT assay. […] Selected compounds were then tested at seven different concentrations (0.5–100 μM) in MCF-7, HCT116, HT-29, HTB-54, 184B5 and BEAS-2B cells. Cells were seeded at 10^4 per well onto flat-bottomed 96-well culture plates. They were treated with either DMSO or increasing concentration of the corresponding compound for 48 h. Then, they were incubated with 20 μL of 3-(4,5-dimethylthiazol-2-yl)-2,5-diphenyltetrazolium bromide (MTT) (2 mg /mL stock; Aldrich) for 2,5 h and analyzed for their ability to generate a purple formazan dye. These formazan crystals were dissolved in 50 μL of DMSO. The absorbance was measured at a wavelength of 550 nm and the ratio of viable cells was calculated. […]

Data set [2] relates to MCF-7 cells. Briefly: MTT cell viability assay, MCF-7. The data set is classed as cell-based. The conditions noted are these: for IC50: Homo sapiens, MCF7, MTT, 48 h; for SI (breast): IC50 (184B5)/IC50 (MCF-7). The method, then: as §1
(§2) The effect of each compound on cell viability was tested using the MTT assay. […] Selected compounds were then tested at seven different concentrations (0.5–100 μM) in MCF-7, HCT116, HT-29, HTB-54, 184B5 and BEAS-2B cells. Cells were seeded at 10^4 per well onto flat-bottomed 96-well culture plates. They were treated with either DMSO or increasing concentration of the corresponding compound for 48 h. Then, they were incubated with 20 μL of 3-(4,5-dimethylthiazol-2-yl)-2,5-diphenyltetrazolium bromide (MTT) (2 mg /mL stock; Aldrich) for 2,5 h and analyzed for their ability to generate a purple formazan dye. These formazan crystals were dissolved in 50 μL of DMSO. The absorbance was measured at a wavelength of 550 nm and the ratio of viable cells was calculated.
(§3) Results are expressed as cell viability % at 10 μM. Selectivity index were calculated as the ratio of the IC50 values determined for the non-malignant and the tumor cells in breast (IC50 (184B5)/IC50 (MCF-7)) and lung (IC50 (BEAS-2B)/IC50 (HTB-54)) cell lines. Data were obtained from at least three independent experiments performed in triplicates.

Data set [3] has as its system NCI-H322M (non-small cell lung). As to the kind of experiment: NCI-60 Five-Dose assay, NCI-H322M. The conditions noted are these: Homo sapiens, 48 h. It is filed as cell-based. As to the method:
(§4) Compounds 14a and 17a were submitted to the Developmental Therapeutics Program (DTP) of National Cancer Institute (NCI). Cytotoxicity activity was evaluated by performing One-Dose screening (10^−5 M) against a panel of 60 human tumor cell lines. […] Cells grew in the RPMI 1640 medium containing 5% fetal bovine serum and 2 mM L-glutamine and were inoculated into 96-well microtiter plates in 100 μL at plating densities ranging from 5.000 to 40.000 cells/well. The microtiter plates inoculated with cells were incubated at 37 °C, in 5% humidified CO2 for 24 h prior to addition of experimental drugs. Then, experimental drugs were added, and the microtiter plates were incubated for 48 h. The protocol is available on https://dtp.cancer.gov/discovery_development/nci-60/methodology.htm accessed on 31 December 2022.

Data set [4] relates to OVCAR-3 (ovarian). As to the kind of experiment: NCI-60 Five-Dose assay, OVCAR-3. It is filed as cell-based. As to conditions: Homo sapiens, 48 h. As to the method: as §4
Data set [5] is described as follows: in vitro. As to the method:
Franz diffusion cells (Microette 8910130, Hanson Research) were employed to perform this assay. The compounds were dissolved in DMSO at 5 mg/mL and diluted to 500 µg/mL with phosphate-buffered saline (PBS)/EtOH (7:3) to make a stock solution. A total of 10 µL of porcine brain lipid (PBL) diluted in dodecane solution (20 mg/mL) was spread onto a PVDF membrane that was placed between the donor and acceptor compartments, forming a sandwich structure. Then, 4.5 mL of PBS/EtOH (7:3) was added to the acceptor compartment and 700 µL of the stock solution was added to the donor cell. […] The concentration of the compound was calculated from the standard curve and expressed as permeability (Pe) by the following formula [84]:Permeability (cm/s): Pe = {−ln [1 − CA(t)/Ceq]}/[A ∗ (1/VD + 1/VA) ∗ t]
A = filter area ([…]), VD = donor cell volume (0.7 mL), VA = acceptor cell volume (4.5 mL), t = incubation time, CA (t) = compound concentration in acceptor cell at time t, CD (t) = compound concentration in donor cell at time t, and Ceq = [CD(t) ∗ VD + […] ∗ VA]/(VD + VA).
Every sample was analyzed at least in duplicate and the data were reported as mean ± SD.

The subject of data set [6] is panel of 60 human tumor cell lines. Briefly: NCI-60 analysis (One-Dose and Five-Dose), whole panel. It is filed as cell-based. The conditions noted are these: 48 h; for GI50: Homo sapiens, Five-Dose assay, 60 cell lines; for mean growth percent: One Dose (10 µM), 60 cancer cell lines. The method, then:
as §4

Data set [7] has as its system 184B5 cells. Briefly: MTT cell viability assay, 184B5 (non-tumorigenic). It is filed as cell-based. As to conditions: Homo sapiens, 48 h, nonmalignant mammary gland. As to the method: as §1, §2, §3
For orientation: Formazan colour is commonly taken as a measure of viable cells.

Data set [8] relates to OVCAR-8 (ovarian). Briefly: NCI-60 Five-Dose assay, OVCAR-8. It is filed as cell-based. The conditions noted are these: Homo sapiens, 48 h. As to the method:
as §4

The test system of data set [9] is MDA-MB-231 cells. As to the kind of experiment: MTT cell viability assay, MDA-MB-231. As to conditions: Homo sapiens, MDA-MB-231, 48 h, read-out: Cell growth % at 10 µM, MDA-MB-231. The data set is classed as cell-based. The method, boiled down:
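Cells grown in RPMI 1640 with 10% FBS at 37 °C, 5% CO2 were seeded at 10^4/well and exposed 48 h to compound (0.5–100 µM dose range). Values are % viability at 10 µM, with IC50 ratios non-tumorigenic/tumor as selectivity index.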

The subject of data set [10] is HCT116 cells. Briefly: MTT cell viability assay, HCT116. The conditions noted are these: Homo sapiens, HCT-116, 48 h. The data set is classed as cell-based. As to the method:
as §1, §2, §3

Bounds are passed on as bounds.

A word on the IC50: it is the concentration that gives 50% inhibition. A low value points to higher potency. As a reminder, the GI50 is the concentration that inhibits growth by half. A high value points to lower sensitivity of the cells. In general, Papp refers to the rate of passage across a membrane or cell layer, normalised by area and donor concentration. Read a low Papp as poor permeation.

As to `C=CC[Se]C(=O)c1ccccc1OC(C)=O` [Compound 14a, 2-(allylselanylcarbonyl)phenylacetate], the IC50 is under 10 µM in data set [1], 9.9 ± 0.9 µM in [2], 10.2 ± 0.1 µM in data set [7] and 5.9 ± 0.8 µM in [10]. Further, in data set [2], the “SI (breast)” value came to 1.0. Further, the GI50 in [3] was determined as 0.34 µM; in [4], 1.9 µM; in data set [6] it was 1.79 µM; in data set [8] it was 1.5 µM. This molecule registered a Papp at 20 h, 500 µg/mL in data set [5] (PAMPA) of 36.9 ± 0.1 ×10⁻⁶ cm/s. For the same molecule, the “fold higher Pe compared to galantamine” value in [5] (PAMPA-BBB) is on record as 3 fold. Also, the “Pe ± SD” value in [5] (PAMPA-BBB, porcine brain lipid, 20 h, 25 °C) worked out at 36.92 ×10⁻⁶ cm/s. Also, the “BBB Permeation (Experimental)” value in data set [5] (class from PAMPA-BBB Pe) is “High (High BBB permeation predicted; Pe (10^−6 cm s^−1) > 4.0)”. In [6], the mean growth percent was −5.89. In data set [9], the viability at 10 µM is 38.8 ± 3.6%.

For the molecule `C=CC[Se]C(=O)Cc1c(C)n(C(=O)c2ccc(Cl)cc2)c2ccc(OC)cc12` [Compound 17a, Se-allyl 2-[1-(4-chlorobenzoyl)-5-methoxy-2-methyl-1H-indol-3-yl]ethaneselenoate], the IC50 in data set [1] was under 10 µM; in data set [2], 9.8 ± 0.3 µM; in [7] it was 13.3 ± 3.9 µM; in data set [10], 7 ± 0.9 µM. The “SI (breast)” value in data set [2] is recorded as 1.4. Also, the GI50 in [3] is 0.42 µM; in data set [4], 1.8 µM; in data set [6], 1.74 µM; in [8] it was 1.7 µM. Also, the mean growth percent in data set [6] is −26.70. The viability at 10 µM in data set [9] came to 26.5 ± 5.6%.

(Values after PMC9854712 (Antioxidants, 2023).)
